The numbers were not newly measured in patent publication US6534676B2, “Method to treat chronic heart failure and/or elevated cholesterol levels using 3,5-diiodothyropropionic acid and method to prepare same” (The Arizona Board of Regents on Behalf of the University of …, priority 2001, dated 2003), which cites them from elsewhere.

The conditions of series [1]: short-term intravenous, patients with advanced congestive failure; cited from earlier work.
The conditions of series [2]: background statement; cited from earlier work.

What is called half-life is how long it takes for the measured level to halve. In the case of `N[C@@H](Cc1cc(I)c(Oc2ccc(O)c(I)c2)c(I)c1)C(=O)O` [T3, 3′,3,5-L-triiodothyrone], the “cardiac output and arterial vascular resistance” value in series [1] is “improve cardiac output and decrease arterial vascular resistance”. In addition, in series [2], the half-life entry is listed as “two days or less”. As to `NC(Cc1cc(I)c(Oc2cc(I)c(O)c(I)c2)c(I)c1)C(=O)O` [Thyroxine, 3,5,3′5′-L-thyronine], in series [2], the half-life was 140 to 170 h.
